Assay [1] has as its target T1, Squalene synthase (Rattus norvegicus, UniProt Q02769).
T1 sequence (Q02769 whole entry): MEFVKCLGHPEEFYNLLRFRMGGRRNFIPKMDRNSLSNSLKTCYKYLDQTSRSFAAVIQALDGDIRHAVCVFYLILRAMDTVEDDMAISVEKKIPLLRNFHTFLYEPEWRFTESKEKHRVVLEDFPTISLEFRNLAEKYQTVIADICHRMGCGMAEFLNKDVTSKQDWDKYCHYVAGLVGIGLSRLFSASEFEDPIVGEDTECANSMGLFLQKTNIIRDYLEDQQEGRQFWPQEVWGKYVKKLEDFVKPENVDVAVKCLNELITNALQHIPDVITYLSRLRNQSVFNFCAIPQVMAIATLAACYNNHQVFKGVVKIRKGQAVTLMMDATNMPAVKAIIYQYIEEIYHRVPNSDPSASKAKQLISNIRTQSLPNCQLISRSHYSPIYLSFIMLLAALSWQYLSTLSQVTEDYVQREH
As to the kind of experiment: Inhibition rat liver microsomal squalene synthase. (Microsomes from liver hold many membrane-bound enzymes, among them those of drug oxidation.)

Assay [2] deals with T2, Squalene synthase (Rattus norvegicus) (UniProt Q02769).
T2 sequence (whole entry): T1 sequence (Q02769 whole entry)
Description: Effective dose to inhibit rat liver microsomal Squalene Synthase was determined by peroral administration at a dose of 30 mg/kg; In active. On the set-up: dose 30 mg/kg. Format: organism-based.

Assay [3] addresses T2, Squalene synthase (Rattus norvegicus). Description: Effective dose to inhibit rat liver microsomal Squalene Synthase was determined by intravenous administration.
For assay [4] the target is unchanged. As to the kind of experiment: Effective dose to inhibit rat liver microsomal Squalene synthase was determined by peroral administration at a dose of 15 mg/kg; inactive. The format is organism-based. Also noted: dose 15 mg/kg.
The target is the same in assay [5]. As to the kind of experiment: Effective dose to inhibit rat liver microsomal Squalene Synthase was determined by peroral administration at 15 mg/kg dose. The format is organism-based. On the set-up: dose 15 mg/kg.
For assay [6] the target is unchanged. As to the kind of experiment: Effective dose to inhibit rat liver microsomal Squalene Synthase was determined by peroral administration.
For assay [7] the target is unchanged. As to conditions: 30 mg/kg.

Calls of active or inactive are those of the source. The calls are words filed in the database; no cut-off is given here.

With `CC(C)=CCC/C(C)=C/CC/C(C)=C/CC(P(C)(=O)O)P(=O)(O)O` (configuration not stated), the IC50 in assay [1] amounted to 106 nM.
Turning to `CC(C)=CCC/C(C)=C/CCCCC(P(C)(=O)O)P(=O)(O)O` (configuration not stated), in assay [1], the IC50 came out at 605 nM.
On to `COCP(=O)(O)C(CCC/C=C(\C)CCC=C(C)C)P(=O)(O)O` (configuration not stated), for which, in assay [1], the 50% inhibitory concentration (IC50) was determined as 13.1 nM.
As for `CP(=O)(O)C(CCCc1ccc(-c2ccccc2)cc1)P(=O)(O)O` (configuration not stated), inhibition in assay [1] was half-maximal at 490 nM (IC50).
In the case of `CC(C)=CCC/C(C)=C/CCCC(P(C)(=O)O)P(=O)(O)O` (configuration not stated), half-maximal inhibition in assay [1] (IC50) required 81 nM.
`CC(C)=CCC/C(C)=C/CCCCCCCC(P(=O)(O)O)P(=O)(O)O`: the ED50 result in assay [2] is “inactive”. In assay [1], this compound registered an IC50 of 4.2 nM. The compound further yielded an ED50 in assay [3] of 0.05 mg/kg.
Take `CC(C)=CCC/C(C)=C/CC/C(C)=C/CCCC(P(=O)(O)O)P(=O)(O)CO` (configuration not stated): the IC50 in assay [1] came to 4.7 nM.
The compound `CC(C)=CCC/C(C)=C/CC/C(C)=C/CCCCC(P(C)(=O)O)P(=O)(O)O` (configuration not stated) had a concentration for half-maximal inhibition (IC50) in assay [1] of 6.5 nM.
Regarding `CC(C)=CCC/C(C)=C/CC/C(C)=C/CCCC(P(C)(=O)O)P(=O)(O)O` (configuration not stated), in assay [1], the IC50 was determined as 12.9 nM.
For the compound `CC(C)=CCC/C(C)=C/CCCC([PH](=O)O)P(=O)(O)O` (configuration not stated), in assay [1], the IC50 is 4 nM.
In assay [1], `CC(C)=CCC/C(C)=C/CC/C(C)=C/CCCC(C(=O)O)P(=O)(O)O` (configuration not stated) came in with a 50% inhibitory concentration (IC50) of 880 nM.
In assay [1], `COCP(=O)(O)C(CCCc1ccc(-c2ccccc2)cc1)P(=O)(O)O` (configuration not stated) returned an IC50 of 14.8 nM.
Still for that read-out and setting: under `CC(C)=CCC/C(C)=C/CCCCCC(P(C)(=O)O)P(=O)(O)O` (configuration not stated) stands 30.7 nM.
In assay [1], `CC(C)=CCC/C(C)=C/CC/C(C)=C/CC(P(=O)(O)O)P(=O)(O)O` returned an IC50 of 32.4 nM.
On the same count and under the same terms, under `CC(C)=CCCCC(P(=O)(O)O)P(=O)(O)O` stands 6600 nM; under `CC(C)=CCC/C(C)=C/CCCCCCC(P(C)(=O)O)P(=O)(O)O` (configuration not stated), 374 nM.
`CC(C)=CCC/C(C)=C/CC(P(=O)(O)O)P(=O)(O)O`: the ED50 result in assay [4] was “inactive”. Also, it took 35.5 nM to reach half-maximal inhibition in assay [1] (IC50).
The compound `CC(C)=CCC/C(C)=C/CC/C(C)=C/CCCCCCC(P(=O)(O)O)P(=O)(O)O` gave an IC50 in assay [1] of 11.8 nM. In addition, the ED50 in assay [3] was 0.13 mg/kg. Besides, the inhibition in assay [5] is 26%.
Regarding `CC(C)=CCC/C(C)=C/CC(P(C)(=O)O)P(=O)(O)O` (configuration not stated), 8600 nM corresponded to half-maximal inhibition in assay [1] (IC50).
Turning to `CC(C)=CCC/C(C)=C/CCCC(P(=O)(O)O)P(=O)(O)CO` (configuration not stated), in assay [1], the 50% inhibitory concentration (IC50) was determined as 38.7 nM.
`O=C(O)C(CCCc1ccc(-c2ccccc2)cc1)P(=O)(O)O` (configuration not stated): the IC50 in assay [1] stood at 2200 nM.
The compound `CC(C)=CCC/C(C)=C/CCCC(C(=O)O)P(=O)(O)O` (configuration not stated) had a half-inhibitory concentration (IC50) in assay [1] of 1650 nM.
With `COCP(=O)(O)C(CCC/C=C(\C)CC/C=C(\C)CCC=C(C)C)P(=O)(O)O` (configuration not stated), inhibition in assay [1] was half-maximal at 6.5 nM (IC50).
As to `CC(C)=CCC/C(C)=C/CCCCCC(P(=O)(O)O)P(=O)(O)O`, in assay [1], the IC50 is 2.5 nM. Besides, the figures for the ED50 in assay [6] and in assay [3] were 1.1 mg/kg and 0.04 mg/kg, respectively.
In turn, `CC(C)=CCC/C(C)=C/CCC(P(=O)(O)O)P(=O)(O)O` gave an IC50 in assay [1] of 77.7 nM.
The compound `O=P(O)(O)C(CCCc1ccc(-c2ccccc2)cc1)P(=O)(O)CO` (configuration not stated) registered an IC50 in assay [1] of 23.9 nM.
On to `CC(C)=CCC/C(C)=C/CCCCCCCC(P(C)(=O)O)P(=O)(O)O` (configuration not stated), for which, in assay [1], the midpoint of inhibition, the IC50, lay at 8.7 nM.
In the case of `CC(C)=CCC/C(C)=C/CCCCCCC(P(=O)(O)O)P(=O)(O)O`, the inhibition in assay [7] stood at 25%. In assay [1], this compound showed an IC50 of 17.6 nM.
As for `CC(C)=CCC/C(C)=C/CCCCC(P(=O)(O)O)P(=O)(O)O`, in assay [1], the IC50 came out at 2.6 nM.

Broadly, the IC50 is the concentration that gives 50% inhibition. A lower IC50 goes with inhibition by little substance. The term ED50 denotes the midpoint of the dose-response relation. A word on the inhibition: it is the change of the read-out against control, counted positive when it falls.

The record behind these values is ChEMBL document CHEMBL1128430, “1,1-Bisphosphonate squalene synthase inhibitors: interplay between the isoprenoid subunit and the diphosphate surrogate” (J Med Chem, 1995).
